Our source for the IC50 values is patent US7026339B2, “Inhibitors of HCV NS5B polymerase” (priority 2003, dated 2006).

Each structure is given as a SMILES string.

In this test the test system is HuH-7 replicon cells 5–15 and 9–13 (HCV replication). In words: Inhibition of viral replication in HuH-7 replicon cells (HCV RNA / GAPDH RNA by multiplex RT-PCR). Format: cell-based. The conditions noted are these: Hepatitis C virus, 72 h; inhibiting 50% of replication; HuH-7 replicon cells, 3 days; read-out: IC50. The method in brief: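 Replicon cells seeded at 7×10^3 cells/well, grown 24 h, then exposed 3 days at 37 °C to compound at final 100 μM–1 μM (1% DMSO). Multiplex TaqMan RT-PCR on total RNA quantified HCV 5′-UTR and GAPDH RNA against a standard curve; HCV/GAPDH ratio reported as percent of untreated control.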
A general note: Replicon systems follow genome replication, usually without infectious particles.
Turning to `O=C(Cc1ccccc1)N/N=C/c1ccccc1OS(=O)(=O)c1ccccc1Br` [Compound 140, 2-{(E)-[2-(2-phenylacetyl)hydrazono]methyl}phenyl 2-bromobenzenesulfonate], the IC50 (in general, the midpoint of a concentration-inhibition curve) is above 50 µM. In the case of `O=C(Cc1cc(F)cc(C(F)(F)F)c1)N/N=C/c1ccccc1OS(=O)(=O)c1ccc(C(F)(F)F)cc1` [Compound 23, 2-[(E)-(2-{2-[3-fluoro-5-(trifluoromethyl)phenyl]acetyl}hydrazono)-methyl]phenyl 4-(trifluoromethyl)benzenesulfonate] it was below 5 µM. Turning to `COc1ccc(CC(=O)N/N=C/c2ccccc2N(C)S(=O)(=O)c2ccc(C(F)(F)F)cc2)cc1OC` [Compound 246, N-[2-((E)-{[(3,4-dimethoxyphenyl)acetyl]hydrazono}methyl)-phenyl]-N-methyl-4-(trifluoromethyl)benzenesuIfonamide], the half-maximal inhibitory concentration (IC50) was below 5 µM. On to `O=C(Cc1ccccc1)N/N=C/c1ccccc1OS(=O)(=O)c1ccc(Br)cc1` [Compound 128, 2-{(E)-[2-(2-phenylacetyl)hydrazono]methyl}phenyl 4-bromobenzenesulfonate], for which the IC50 was below 5 µM. In the case of `O=C(N/N=C/c1ccccc1OS(=O)(=O)c1ccc(C(F)(F)F)cc1)c1ccc(Cl)cc1Cl` [Compound 74, 2-{(E)-[2-(2,4-dichlorobenzoyl)hydrazono]methyl}phenyl4-(trifiuoromethyl)benzenesulfonate] it was below 5 µM.

As for `Cc1ccc(S(=O)(=O)Oc2cc(F)ccc2/C=N/NC(=O)Cc2cccc(Cl)c2)cc1` [Compound 212, 2-((E)-{[(3-chlorophenyl)acetyl]hydrazono}methyl)-5-fluorophenyl 4-methylbenzenesulfonate], the IC50 was below 5 µM. In the case of `COc1ccc(S(=O)(=O)Oc2ccccc2/C=N/NC(=O)Cc2cccc(OC)c2)cc1` [Compound 151, 2-((E)-{2-[2-(3-methoxyphenyl)acetyl]hydrazono}methyl)-phenyl 4-methoxybenzenesulfonate] it was below 5 µM; in that of `CN(C)c1cccc(OCC(=O)N/N=C/c2ccccc2OS(=O)(=O)c2ccc(C(F)(F)F)cc2)c1` [Compound 86, 2-[(E)-(2-{2-[3-(dimethylamino)phenoxy]acetyl}hydrazono)-methyl]phenyl 4-(trifluoromethyl)benzenesulfonate], above 50 µM; in that of `COc1cccc(CC(=O)N/N=C/c2c(F)cccc2OS(=O)(=O)c2ccc(C)cc2)c1` [Compound 208, 3-fluoro-2-((E)-{[(3-methoxyphenyl)acetyl]hydrazono}methyl)-phenyl 4-methylbenzenesulfonate], 5 to 50 µM. In the case of `COc1cccc(CC(=O)N/N=C/c2cccc(Cl)c2OS(=O)(=O)c2ccc(C)cc2)c1` [Compound 180, 2-chloro-6-((E)-{[(3-methoxyphenyl)acetyl]hydrazono}methyl)-phenyl 4-methylbenzenesulfonate], the concentration for half-maximal inhibition (IC50) was below 5 µM.

Regarding `COc1cccc(CC(=O)N/N=C/c2ccccc2OS(=O)(=O)Cc2cccc(C(F)(F)F)c2)c1` [Compound 189, 2-((E)-{2-[2-(3-methoxyphenyl)acetyl]hydrazono}methyl)-phenyl [3-(trifluoromethyl)phenyl]methanesulfonate], the half-inhibitory concentration (IC50) was above 50 µM.

Consider `CCCCOc1ccc(S(=O)(=O)Oc2ccccc2/C=N/NC(=O)Cc2cccc(OC)c2)cc1` [Compound 199, 2-((E)-{2-[2-(3-methoxyphenyl)acetyl]hydrazono}methyl)-phenyl 4-butoxybenzenesulfonate], for which the half-inhibitory concentration (IC50) was below 5 µM. As for `O=C(Cc1ccccc1)N/N=C/c1ccccc1OS(=O)(=O)c1cccc(Br)c1` [Compound 127, 2-{(E)-[2-(2-phenylacetyl)hydrazono]methyl}phenyl 3-bromobenzenesulfonate], the IC50 is 5 to 50 µM.

Regarding `CCCCCc1ccc(S(=O)(=O)Oc2ccccc2/C=N/NC(=O)Cc2cccc(OC)c2)cc1` [Compound 183, 2-((E)-{2-[2-(3-methoxyphenyl)acetyl]hydrazono}methyl)-phenyl 4-pentylbenzenesulfonate], the IC50 was below 5 µM. Turning to `Cc1ccc(S(=O)(=O)Oc2ccccc2/C=N/NC(=O)Cc2cccc(Cl)c2)cc1` [Compound 147, 2-((E)-{2-[2-(3-chlorophenyl)acetyl]hydrazono}methyl)-phenyl 4-methylbenzenesulfonate], the IC50 was below 5 µM. On to `CN(c1ccccc1/C=N/NC(=O)Cc1ccc2c(c1)OCO2)S(=O)(=O)c1ccc(C(F)(F)F)cc1` [Compound 248, N-(2-{(E)-[(1,3-benzodioxol-5-ylacetyl)hydrazono]methyl}phenyl)-N-methyl-4-(trifluoromethyl)benzenesulfonamide], for which the 50% inhibitory concentration (IC50) is below 5 µM. Regarding `O=C(CC12CC3CC(CC(C3)C1)C2)N/N=C/c1ccccc1OS(=O)(=O)c1ccc(C(F)(F)F)cc1` [Compound 94, 2-((E)-{2-[2-(1-adamantyl)acetyl]hydrazono}methyl)phenyl4-(trifluoromethyl)benzenesulfonate], the concentration for half-maximal inhibition (IC50) is above 50 µM. For `O=C(Cc1cccc(Br)c1)N/N=C/c1ccccc1OS(=O)(=O)c1ccc(C(F)(F)F)cc1` [Compound 62, 2-((E)-{2-[2-(3-bromophenyl)acetyl]hydrazono}methyl)-phenyl 4-(trifluoromethyl)benzenesulfonate], the IC50 is below 5 µM.

Consider `O=C(Cc1cccc2occc12)N/N=C/c1ccccc1OS(=O)(=O)c1ccc(C(F)(F)F)cc1` [Compound 65, 2-((E)-{2-[2-(1-benzofuran-4-yl)acetyl]hydrazono}methyl)phenyl 4-(trifluoromethyl)benzenesulfonate], for which the IC50 fell in the range of 5 to 50 µM. As to `O=C(Cc1ccc(Br)cc1)N/N=C/c1ccccc1OS(=O)(=O)c1ccc(C(F)(F)F)cc1` [Compound 52, 2-((E)-{2-[2-(4-bromophenyl)acetyl]hydrazono}methyl)-phenyl 4-(trifluoromethyl)benzenesulfonate], the IC50 is below 5 µM. As for `O=C(Cc1ccccc1Oc1ccccc1)N/N=C/c1ccccc1OS(=O)(=O)c1ccc(C(F)(F)F)cc1` [Compound 57, 2-((E)-{2-[2-(2-phenoxyphenyl)acetyl]hydrazono}methyl)-phenyl 4-(trifluoromethyl)benzenesulfonate], the IC50 was below 5 µM. `COc1cccc(CC(=O)N/N=C/c2ccccc2CS(=O)(=O)c2ccc(C)cc2)c1` [Compound 233, 2-(3-methoxyphenyl)-N′-[(1 E)-(2-{[(4-methylphenyl)sulfonyl]methyl}phenyl)-methylene]acetohydrazide]: the IC50 is below 5 µM. Turning to `O=C(Cc1ccccc1)N/N=C/c1ccccc1OS(=O)(=O)c1cc(Cl)cc(Cl)c1` [Compound 126, 2-{(E)-[2-(2-phenylacetyl)hydrazono]methyl}phenyl3,5-dichlorobenzenesulfonate], the IC50 was in the range of 5 to 50 µM. Turning to `COc1cccc(CC(=O)N/N=C/c2ccccc2OS(=O)(=O)c2ccc(-n3cccn3)cc2)c1` [Compound 196, 2-((E)-{2-[2-(3-methoxyphenyl)acetyl]hydrazono}methyl)-phenyl 4-(1H-pyrazol-1-yl)benzenesulfonate], the IC50 is below 5 µM.

For `O=C(CC1CCCCC1)N/N=C/c1ccccc1OS(=O)(=O)c1ccc(C(F)(F)F)cc1` [Compound 45, 2-{(E)-[2-(2-cyclohexylacetyl)hydrazono]methyl}phenyl4-(trifluoromethyl)benzenesulfonate], the 50% inhibitory concentration (IC50) is below 5 µM. For the compound `CCOc1cccc(/C=N/NC(=O)Cc2cccc(OC)c2)c1OS(=O)(=O)c1ccc(C)cc1` [Compound 161, 2-ethoxy-6-((E)-{[(3-methoxyphenyl)acetyl]hydrazono}methyl)-phenyl 4-methylbenzenesulfonate], the IC50 lay within 5 to 50 µM. In the case of `O=C(Cc1ccccc1)N/N=C/c1ccccc1OS(=O)(=O)c1ccc(F)cc1` [Compound 129, 2-{(E)-[2-(2-phenylacetyl)hydrazono]methyl}phenyl 4-fluorobenzenesulfonate] it was 5 to 50 µM; in that of `O=C(Cc1ccncc1)N/N=C/c1ccccc1OS(=O)(=O)c1ccc(C(F)(F)F)cc1` [Compound 1, 2-{(E)-[2-(2-pyridin-4-ylacetyl)-hydrazono]methyl}phenyl 4-(trifluoromethyl)benzenesulfonate], 5 to 50 µM.

As to `O=C(Cc1cccc(Cl)c1)N/N=C/c1c(Cl)cccc1OS(=O)(=O)c1ccc(C(F)(F)F)cc1` [Compound 194, 3-chloro-2-((E)-{[(3-chlorophenyl)acetyl]hydrazono}methyl)-phenyl 4-(trifluoromethyl)benzenesulfonate], the IC50 was below 5 µM. Turning to `COc1cccc(CC(=O)N/N=C/c2cc(C)ccc2OS(=O)(=O)c2ccc(C)cc2)c1` [Compound 157, 2-((E)-{[(3-methoxyphenyl)acetyl]hydrazono}methyl)-4-methylphenyl 4-methylbenzenesulfonate], the concentration for half-maximal inhibition (IC50) was below 5 µM. `Cc1ccc(S(=O)(=O)N/N=C/c2ccccc2OS(=O)(=O)c2ccc(C(F)(F)F)cc2)cc1` [Compound 78, 2-((E)-{2-[(4-methylphenyl)sulfonyl]hydrazono}methyl)-phenyl 4-(trifluoromethyl)benzenesulfonate]: the IC50 was 5 to 50 µM. As for `CN(c1ccccc1/C=N/NC(=O)Cc1cccnc1)S(=O)(=O)c1ccc(C(F)(F)F)cc1` [Compound 247, N-methyl-N-(2-{(E)-[(pyridin-3-ylacetyl)hydrazono]methyl}phenyl)-4-(trifluoromethyl)benzenesulfonamide], the half-maximal inhibitory concentration (IC50) is below 5 µM. With `COc1cccc(CC(=O)N/N=C/c2ccc(Cl)cc2OS(=O)(=O)c2ccc(C)cc2)c1` [Compound 209, 5-chloro-2-((E)-{[(3-methoxyphenyl)acetyl]hydrazono}methyl)-phenyl 4-methylbenzenesulfonate], the IC50 is below 5 µM. On to `O=C(Cc1ccccc1)N/N=C/c1ccccc1OS(=O)(=O)c1ccc(Cl)cc1Cl` [Compound 124, 2-{(E)-[2-(2-phenylacetyl)hydrazono]methyl}phenyl2,4-dichlorobenzenesulfonate], for which the half-inhibitory concentration (IC50) was below 5 µM.
